From ChEMBL document CHEMBL1201862, “PubChem BioAssay data set” (2004)
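Following 48 hours of exposure in 96-well plates, responses at five concentrations were used to interpolate endpoints linearly. Abbreviation: GI50, concentration required for 50% inhibition of growth.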 Calls of active or inactive are those of the source. No stated cut-off is given here; in the data, active = GI50 up to about 1.1 µM and inactive = higher.

Tests used:
Test in all cases: DTP human tumour cell line panel, 48 h
[1] = test system: 786-0
[2] = test system: A498
[3] = test system: A549
[4] = test system: ACHN
[5] = test system: CCRF-CEM
[6] = test system: COLO 205
[7] = test system: DLD-1
[8] = test system: DMS-114
[9] = test system: DMS-273
[10] = test system: EKVX
[11] = test system: HCT-116
[12] = test system: HCT-15
[13] = test system: HL-60
[14] = test system: HOP-18
[15] = test system: HOP-62
[16] = test system: HT-29
[17] = test system: IGROV-1
[18] = test system: K562
[19] = test system: KM12
[20] = test system: LXFL 529
[21] = test system: M14
[22] = test system: M19-MEL
[23] = test system: MOLT-4
[24] = test system: Malme-3M
[25] = test system: NCI-H23
[26] = test system: NCI-H460
[27] = test system: NCI-H522
[28] = test system: OVCAR-3
[29] = test system: OVCAR-4
[30] = test system: OVCAR-5
[31] = test system: OVCAR-8
[32] = test system: RPMI-8226
[33] = test system: RXF 393
[34] = test system: SF-268
[35] = test system: SF-295
[36] = test system: SF-539
[37] = test system: SK-MEL-28
[38] = test system: SK-MEL-2
[39] = test system: SK-MEL-5
[40] = test system: SK-OV-3
[41] = test system: SN12C
[42] = test system: SNB-19
[43] = test system: SNB-75
[44] = test system: SNB-78
[45] = test system: SR
[46] = test system: SW-620
[47] = test system: TK-10
[48] = test system: U-251
[49] = test system: UACC-257
[50] = test system: UACC-62
[51] = test system: UO-31

SMILES: CN(C)CCC(/C=C/c1ccccc1)=N\Nc1ccc(Cl)cc1Cl
- GI50 [1]: 12.9 µM (inactive)
- GI50 [2]: 16.6 µM (inactive)
- GI50 [3]: 15.6 µM (inactive)
- GI50 [4]: 12.7 µM (inactive)
- GI50 [5]: 10.5 µM (inactive)
- GI50 [6]: 14.6 µM (inactive)
- GI50 [7]: 14.1 µM (inactive)
- GI50 [8]: 14.8 µM (inactive)
- GI50 [9]: 13.2 µM (inactive)
- GI50 [10]: 15 µM (inactive)
- GI50 [11]: 14.5 µM (inactive)
- GI50 [12]: 11.9 µM
- GI50 [13]: 2.29 µM (inactive)
- GI50 [14]: 10.2 µM (inactive)
- GI50 [15]: 13.6 µM (inactive)
- GI50 [16]: 14.2 µM (inactive)
- GI50 [17]: 8.02 µM (inactive)
- GI50 [18]: 13.1 µM (inactive)
- GI50 [19]: 15.1 µM (inactive)
- GI50 [20]: 10.9 µM (inactive)
- GI50 [21]: 13.7 µM (inactive)
- GI50 [22]: 15.6 µM (inactive)
- GI50 [23]: 10.9 µM (inactive)
- GI50 [24]: 18.5 µM (inactive)
- GI50 [25]: 17.1 µM (inactive)
- GI50 [26]: 13.8 µM (inactive)
- GI50 [27]: 15.3 µM (inactive)
- GI50 [28]: 14.1 µM (inactive)
- GI50 [29]: 14.7 µM (inactive)
- GI50 [30]: 15.5 µM (inactive)
- GI50 [31]: 16.3 µM (inactive)
- GI50 [32]: 11.7 µM (inactive)
- GI50 [33]: 8.77 µM (inactive)
- GI50 [34]: 12.2 µM (inactive)
- GI50 [35]: 16.6 µM (inactive)
- GI50 [36]: 15.2 µM (inactive)
- GI50 [37]: 14.3 µM (inactive)
- GI50 [38]: 13.3 µM (inactive)
- GI50 [39]: 13.4 µM (inactive)
- GI50 [40]: 10.8 µM (inactive)
- GI50 [41]: 11.1 µM (inactive)
- GI50 [42]: 15.5 µM (inactive)
- GI50 [43]: 6.1 µM (inactive)
- GI50 [44]: 13.5 µM (inactive)
- GI50 [45]: 7.57 µM (inactive)
- GI50 [46]: 14 µM (inactive)
- GI50 [47]: 14.2 µM (inactive)
- GI50 [48]: 11.6 µM (inactive)
- GI50 [49]: 13.9 µM (inactive)
- GI50 [50]: 9.35 µM (inactive)
- GI50 [51]: 1.73 µM (inactive)
